US8158682B2, “Instillation administration of capsaicinoids for the treatment of pain” (Vallinex, Inc., priority 2008, dated 2012)
Where “and” joins values, the source holds several entries; their conditions need not be identical. Equal values may be shown once. Entries after “also recorded” stand apart in the source; their conditions may differ.

Legend:
rat paw incision model [1] = test: Rat paw incision model, postsurgical thermal hyperalgesia (thermal paw withdrawal latency); assay type: in vivo; conditions: for ED10 / ED20 / ED50: analgesic intensity, thermal hyperalgesia; for ED50: 5 minute intraoperative instillation
Description: (§1) Male Sprague-Dawley rats (Chrales River Laboratories, Inc., Wilimington, Mass., 225-250 g) were anesthetized with 2% isoflurane delivered via nose cone. Ten to 15 minutes before surgery, 100 μL of 2% lidocane was injected in the plantar surface of the right hind paw. A 1 centimeter incision (number 15 scalpel blade) was make through the skin, muscle, and fascia of the anesthetized paw, starting 5 mm from the proximal edge of the heel and extending toward the toes. After elevating the incised tissue, 20 μL of capsaicin formulation or vehicle were instilled into the surgical incision, allowed to dwell for pre-specified times, and then removed via aspiration using a cotton swab. The incision was apposed with 4 single interrupted mattress sutures of 5-0 nylon thread.
(§2) Animals were tested on the day before surgery (baseline) and on days 1, 2, 3, and 6 after surgery. Thermal sensitivity was assessed by thermal paw withdrawal latency as described by Hargreaves et al. (Hargreaves et al., J. Pain 32:77-88 (1988)). Mechanical hyperalgesia was assessed by the “up-down” algorithm of Chaplan et al. (Chaplan et al., J. Neurosci. Methods 53:55-63 (1994)).
(§3) In this study, animals in the active treatment groups received an intraoperative instillation of capsaicin (5 μg per 20 μL 50% PEG-300) for the designated times. Animals in the control groups received 20 μL of 50% PEG-300 for 5 minutes (vehicle) or no intraoperative treatment (sham). Graph points represent mean values; error bars are ±SEM.
(§4) In the study, animals in the active treatment groups received 5 minute intraoperative instillations of capsaicin formulation (1.5 μg to 150 μg per 20 μL of 50% PEG-300). Animals in the control groups received 5 minute intraoperative instillations of 20 μL of 50% PEG-300 (vehicle) or 5 minute intraoperative instillations of 20 μL of 50% PEG-300 plus subcutaneous buprenorphine (50 μg/kg) 1 hour before behavioral testing (Bup). Bars represent mean values; error bars are ±SEM.
The experimental data from FIG. 2 were used to calculate analgesic intensity (AI) as follows: AI(%)=100×([PWLtreat−PWLbasal]/[cut-off−PWLbasal]), where PWLtreat was the paw withdrawal latency after capsaicin treatment, PWLbasal was the paw withdrawal latency on day 1 after vehicle treatment, and cut-of was 20 seconds. […] (CI=confidence interval)

rat paw incision model [2] = test: Rat paw incision model, postsurgical mechanical hyperalgesia (paw withdrawal threshold, up-down); assay type: in vivo
Description: as §1, §2
as §3, with “(vehicle).” for “(vehicle) or no intraoperative treatment (sham).”
as §4, with “In this” for “In the”, “capsaicin (5, 15, or 75” for “capsaicin formulation (1.5 μg to 150”, “or subcutaneous injection” for “or 5 minute intraoperative instillations”, “of” for “of 20 μL of 50% PEG-300 plus subcutaneous”
In this study, animals in the active treatment groups received 5 minute intraoperative instillations of capsaicin (5, 15, or 75 μg per 20 μL of 50% PEG-300). Animals in the control groups received 5 minute intraoperative instillations of 20 μL of 50% PEG-300 (vehicle). Graph points represent mean values; error bars are ±SEM.

sciatic nerve = test: Extrafascicular instillation on sciatic nerve: body weight, behavioral testing, nerve histology; assay type: in vivo, rat
Description: (§5) Adult CD Charles River rats were anesthetized with isoflurane and oxygen. Extrafascicular instillation: The sciatic nerve was exposed by blunt dissection and 100 μl of test article was applied directly to the sciatic nerve). Treatment groups received either vehicle (25% PEG 300), 0.0083 mg capsaicin (≧98% pure) or 0.025 mg capsaicin dissolved in vehicle. […] Osteotomy: The lateral aspect of the right femur was exposed and cut at the midshaft using an oscillating saw. An intramedullary Kirshner wire was inserted for fracture reduction and the osteotomy site irrigated with 100 μl of the vehicle (20% PEG 300, 10 mM histidine and 5% (w/v) sucrose) or 0.5 mg capsaicin diluted in vehicle.
Behavioral testing: Individual rats were placed in a black plexiglass observation box and parameters including posture, rearing, vocalization, bizarre behavior, mobility, and stereotypy were evaluated based on the methods of Moser et al. (Moser et al., Fundam. Appl. Toxicol. 11: 189-206 (1988)). Forelimb and hindlimb grip strength was measured using a strain gauge that recorded the maximum force in Kg as described by Meyer (Meyer et al. Neurobehav. Toxicol. 1:233-236 (1979) and Meyer and Ross (1966) U.S. Environmental Protection Agency, Wasington, D.C.) Hindlimb splay was quantitatively measured as described by Edwards et al. (Edwards et al., Toxicol Appl. Pharmacol. 40:589-591 (1977)). Thermal response was measured using the hot plate test as previously described by Ankier (Aniker Eur. J. Pharmacol. 27:1-4 (1974). The hot plate was set at 52° C. and the latency between placement of the animal on the heated surface and the first paw lick was recorded. The test was administered three times at predose and at days 3, 14 and 28 post-surgery and the values averaged.
(§6) Histology: Rats were euthanized by intraperitoneal injection of sodium pentobarbital (90 mg/Kg) followed by transcardiac perfusion with 0.9% saline then 3% paraformaldehyde and 3% glutaraldehyde in 0.1 M phosphate buffer. The entire length of sciatic nerve was embedded in paraffin or plastic and representative sections were taken from the treatment site and proximal and distal sites and stained with hematoxylin and eosin (H&E). Sections were scored for neuronal and myelin integrity, appearance and inflammation.
(§7) Statistics: Levene's test was used to assess homogeneity of group variances for each specified end point and for each data collection interval. If Levene's test was not significant (P>0.01), a pooled estimate of the variance (Means Square Error) was computed from a one-way analysis of variance (ANOVA) and utilized by Dunnett's comparison of each treatment group with the control group. If Levene's test was significant (P<0.01), comparisons with the control group were made using Welch's t-test with a Bonferroni correction.

osteotomy site = test: Femur osteotomy: histology and biomechanical testing (4-point bending); assay type: in vivo, rat
Description: as §5, §6
Biomechanical Testing: Both osteotomized and contralateral whole femurs were tested in 4-point bending with a servohydrolic material test system (858 Mini Bionix) to determine the material properties of the cortical bone. Peak load, energy to break (area under the curve) and stiffness were derived. Peak load was measured as the maximum height of the load-displacement curve, and stiffness was measured as the slope of the linear portion of the load-displacement curve.
as §7

[3] = cited from earlier work
[4] = intraoperative instillation, rat paw incision model
[5] = 0.5 mg, right femur, vs vehicle (FIG. 14)

SMILES: COc1cc(CNC(=O)CCCC/C=C/C(C)C)ccc1O [capsaicin, N-(4-hydroxy-3-methoxybenzyl)-8-methylnon-trans-6-enamide]
- dose dependence of reduction of postsurgical thermal hyperalgesia (rat paw incision model [1]; 1.5 μg to 150 μg per 20 μL 50% PEG-300, 5 minute instillation (FIG. 2)): dose-dependant; also recorded: dose-dependent
- postsurgical thermal hyperalgesia (PWL) (rat paw incision model [1]; 5 μg per 20 μL 50% PEG-300, instillation 5 or 10 minutes, post-surgical days 1, 2, 3, vs vehicle and sham (FIG. 1)): significantly lower thermal hyperalgesia; also recorded: reduces postsurgical thermal hyperalgesia
- ED10 (rat paw incision model [1]; day 1 after surgery): 3.46 µg
- ED20 (rat paw incision model [1]; day 1 after surgery): 7.77 µg
- ED50 (rat paw incision model [1]; day 1 after surgery): 31.01 µg
- ED10 (rat paw incision model [1]; day 2 after surgery): 2.99 µg
- ED20 (rat paw incision model [1]; day 2 after surgery): 8.38 µg
- ED50 (rat paw incision model [1]; day 2 after surgery): 48.53 µg
- ED10 (rat paw incision model [1]; day 3 after surgery): 1.84 µg
- ED20 (rat paw incision model [1]; day 3 after surgery): 6.09 µg
- ED50 (rat paw incision model [1]; day 3 after surgery): 47.09 µg and 47.08 µg
- duration of sustained analgesia (rat paw incision model [1]; [4]): up to 6 days
- potency against thermal versus mechanical hyperalgesia (rat paw incision model [1]; [4]): higher potency against postsurgical thermal hyperalgesia than mechanical hyperalgesia
- postsurgical mechanical hyperalgesia (PWT) (rat paw incision model [2]; 5 μg per 20 μL 50% PEG-300, designated dwell times (FIG. 4)): did not reduce postsurgical mechanical hyperalgesia; also recorded: does not reduce postsurgical mechanical hyperalgesia
- postsurgical mechanical hyperalgesia (PWT) (rat paw incision model [2]; 75 μg, 5 minute instillation, vs vehicle (FIG. 5)): produced significant analgesic effects relative to vehicle; also recorded: reduces postsurgical mechanical hyperalgesia
- postsurgical mechanical hyperalgesia (PWT) over time (rat paw incision model [2]; 75 μg, 5 minute instillation, vs vehicle, days 1 and 3 (FIG. 6)): greater after an instillation of 75 μg capsaicin formulation than vehicle; also recorded: reduces postsurgical mechanical hyperalgesia
- dose dependence of reduction of postsurgical mechanical hyperalgesia (rat paw incision model [2]; 5, 15 or 75 μg per 20 μL 50% PEG-300, 5 minute instillation (FIG. 5)): dose-dependant
- sciatic nerve histology (H&E), appearance (sciatic nerve; 0.025 mg extrafascicular instillation, 3 days or 28 days post treatment, vs sham operated (FIG. 12)): no difference in appearance
- activity/arousal (sciatic nerve; extrafascicular instillation (FIG. 8)): does not effect activity/arousal
- hindpaw splay (sciatic nerve; extrafascicular instillation (FIG. 10)): no effect on hindpaw splay
- thermal withdrawal (hot plate, 52° C.) (sciatic nerve; extrafascicular instillation (FIG. 11)): no effect on thermal withdrawal
- adverse effects on structural integrity of exposed nerve (sciatic nerve; extrafascicular instillation, summary): no observable adverse effects
- weight gain (sciatic nerve; extrafascicular instillation, first 10 post-operative days, vs sham-operated rats (FIG. 7)): reduces weight gain
- hindpaw grip strength (sciatic nerve; extrafascicular instillation, post operative days 3 and 14 (FIG. 9)): decreases hindpaw grip strength
- osteotomy site histology (H&E) (osteotomy site; 0.5 mg vs vehicle (FIG. 13)): show no differences
- general integrity of bone structure (AUC, energy to break) (osteotomy site; [5]): no difference
- peak load (osteotomy site; [5]): no difference
- stiffness (osteotomy site; [5]): no difference
- adverse effects on wound and bone healing following osteotomy (osteotomy site; instillation, summary): no observable adverse effects
- solubility in organic solvents ([3]; alcohol, ether, benzene and chloroform): freely soluble
- solubility in water ([3]; water): practically insoluble
